Assay results reported in patent US6383479B1, “Neutrophil-activating factor” (Novartis AG, priority 1987, dated 2002).

Legend:
[1] = resistance of NAF activity to heat, pH, denaturing agents and proteases; type: physicochemical
Procedure: Partially purified NAF obtained upon phosphocellulose chromatography (Example 4) is used in these experiments. Following phosphocellulose chromatography, fractions with the highest NAF activity are dialysed overnight at 4° against PBS using a membrane with a molecular weight cut-off of 1000 daltons. The preparation obtained is then subjected to the following treatments: a) incubation at 37° with and without trypsin, chymotrypsin or proteinase K (100 μg/ml) followed by the addition of an excess of BSA (2 mg/ml) to stop NAF proteolysis; b) heating to 56°, 80° or 95° (as compared to 22° for control); c) exposure to pH 2 or 10 (at 22°) followed by adjustment to pH 7.4 (as compared to pH 7.4 for control); d) exposure to 2 M lithium chloride, 6 M guanidinium chloride, 1% 2-mercaptoethanol or 0.5% sodium dodecyl sulfate (SDS) for 3 h at 22°, followed by dialysis for 24 h at 4° against PBS. When additions are made, samples without NAF are handled in the same way and tested for possible influence on the NAF assay.

neutrophils = experiment: sequential/repeated stimulation of neutrophils (desensitization, superoxide formation); type: cell-based, human
Procedure: a) Neutrophils (3×10^6 /ml) are preincubated at 37° C. for 5 min. and then stimulated with different agonists as indicated (arrows).
b) Sequential or repeated stimulation with NAF and C5a. Conditions as in a).
Arrows show addition of agonists as indicated. The concentration of C5a is 0.5 nM in a) and 0.2 nM in b), that of fMLP is 20 nM in both experiments. The agonists are added in 50 μl of PBS-BSA.
On the other hand, when agonists acting on different receptors are used in sequence.(e.g. fMLP followed by C5a) these stimulations yield a normal response. Experiments of this type are therefore used to find out whether NAF acts by its own receptor or via a receptor also used by other agonists.

[2] = test system: mouse, rat and guinea pig; experiment: preliminary tests of NAF activity in mouse, rat and guinea pig
Text: The biological properties of NAF are species-specific. Activity in the rabbit most closely mirrors activity in humans.

human neutrophils [3] = experiment: stimulus-dependent exocytosis of granule contents by human neutrophils; type: cell-based
Procedure: Neutrophils (5×10^6/ml) suspended in PBS/BSA are preincubated with or without cytochalasin B (5 μg/ml) at 37° for 5 min.
Granule release is then initiated by adding the stimulus, e.g. NAF or a standard stimulus. The reaction is stopped 15 min later by rapid cooling in ice followed by centrifugation to sediment the cells. Vitamin B12-binding protein, β-glucuronidase and lactate dehydrogenase are determined in the cell-free media and cell pellets, and the release of these constituents is calculated in percent of the total cellular content (B. Dewalt and M. Baggiolini, Methods Enzymol. 132 [1986] 267).
Natural and recombinant NAF are tested in parallel on human neutrophils. They elicit virtually identical changes in cytosolic free Ca^2+, yielding a maximum rise at a concentration as low as 3 nM (FIG. 15). A nearly identical concentration-dependent respiratory burst response is obtained with both preparations in the range of 1 to 30 nM as assessed by chemiluminescence. The equivalence between natural and recombinant NAF is also reflected by chemotaxis and exocytosis measurements. Chemotactic migration is observed between 0.1 and 10 nM with a maximum effect at 1 nM. (Table 6). With either peptide a significant release of vitamin B12-binding protein from the specific granules at 0.3 nM and of beta-glucuronidase from the azurophil granules at 1 nM is observed.

human neutrophils [4] = experiment: superoxide formation (SOD-sensitive cytochrome c reduction) by human neutrophils; type: cell-based; settings: per 10^6 cells
Procedure: a) Superoxide production: neutrophils (3×10^6 /ml) are preincubated at 37° with or without 1 μm PAF for 2 minutes and then stimulated with increasing amounts of NAF. Recordings of cytochrome c reduction following NAF addition are shown.
Superoxide formation is measured at 37° as the SOD sensitive reduction of ferricytochrome c (M. Markert et al., Methods Enzymol. 132 [1984] 267). The assay mixture (800 μl) consists of 0.75×10^6 cells/ml PBS-BSA containing 85 μM cytochrome c. Absorbance changes are recorded in a Hewlett-Packard 8451A diode array spectrophotometer equipped with a thermostated seven-place cuvette exchanger. Table 4 documents the capacity of NAF to elicit the respiratory burst in human neutrophils: […]

thymocyte = thymocyte proliferation as a measure of IL-1 activity; type: cell-based; settings: phosphocellulose fractions
Procedure: Mononuclear cells obtained from donor blood buffy coats as described in Example 1 are cultured in MEM-PPL for 48 h in the presence of 100 ng/ml LPS in stirred culture bottles (1.5 liter, 5×10^6 cells/ml). The culture supernatants are then collected, centrifuged at 20000 rpm for 20 min. at 4° to remove particulate material, and loaded onto a 10 ml phosphocellulose column (Whatman P11, 1,4×6 cm) equilibrated with 20 mM potassium phosphate buffer, pH 7.2 containing 20 mM NaCl and 5% glycerol. The column is washed with 30 ml of the above buffer and then eluted with 90 ml of a linear NaCl concentration gradient (0.02 M to 1.5 M) in the same buffer. Fractions of 2 ml are collected in 0.1% polyethylene glycol and tested for NAF and IL-1 activity. Absorbance at 280 nm is monitored continuously as a measure of protein.
Most of the protein as well as the IL-1 activity are recovered in the flow-through volume. Elution with a linear NaCl gradient yields some IL-1 activity at low ionic strength followed by a peak of elastase-releasing activity corresponding to NAF, which starts to elute at 0.5 M and reaches its maximum at 0.8 M NaCl. The peak is symmetric and is preceded by a small shoulder.

[5] = NAF 50 μl, with CB (cytochalasin B 5 μg/ml)
[6] = NAF 100 μl, with CB (cytochalasin B 5 μg/ml)

Substance: neutrophil-activating factor [NAF]
- Relative activity ([1]; 2-mercaptoethanol 1.0%, 22°, 3 h): 30
- Relative activity ([1]; SDS 0.5%, 22°, 3 h): 100
- Relative activity ([1]; Temperature 22°, 3 h (control)): 100
- Relative activity ([1]; Temperature 56°, 1 h): 82
- Relative activity ([1]; Temperature 80°, 15 min): 80
- Relative activity ([1]; Temperature 95°, 5 min): 66
- Relative activity ([1]; guanidinium chloride 6M, 22°, 3 h): 68
- Relative activity ([1]; lithium chloride 2M, 22°, 3 h): 52
- Relative activity ([1]; pH 2.0, 22°, 3 h): 76
- Relative activity ([1]; pH 10.0, 22°, 3 h): 90
- Relative activity ([1]; proteinase K 100 μg/ml, 37°, 12 h): 0
- Relative activity ([1]; trypsin 100 μg/ml, 37°, 4 h): 100
- Relative activity ([1]; trypsin 100 μg/ml, 37°, 12 h): 8
- Relative activity ([1]; α-chymotrypsin 100 μg/ml, 37°, 4 h): 80
- Relative activity ([1]; α-chymotrypsin 100 μg/ml, 37°, 12 h): 1
- cross-desensitization in combinations of NAF with PAF, fMLP and leukotriene B4 (neutrophils): fail to show cross-desensitization
- cross-desensitization between NAF and C5a (neutrophils; superoxide formation): no cross-desensitization
- desensitization to a second stimulation with the same agonist (neutrophils; superoxide formation): complete desensitization
- activity in the mouse, rat and guinea pig [2]: not shown any clear activity
- Percent release of Vit. B12-binding protein (human neutrophils [3]; [5]): 25.6 ± 3.4%
- Percent release of lactate dehydrogenase (human neutrophils [3]; [5]): 6.7 ± 1.6%
- Percent release of β-glucuronidase (human neutrophils [3]; [5]): 7.9 ± 2.0%
- Percent release of Vit. B12-binding protein (human neutrophils [3]; NAF 50 μl, without CB): 12.9 ± 1.6%
- Percent release of lactate dehydrogenase (human neutrophils [3]; NAF 50 μl, without CB): 5.8 ± 0.7%
- Percent release of β-glucuronidase (human neutrophils [3]; NAF 50 μl, without CB): 2.7 ± 1.3%
- Percent release of Vit. B12-binding protein (human neutrophils [3]; [6]): 26.8 ± 4.9%
- Percent release of lactate dehydrogenase (human neutrophils [3]; [6]): 7.3 ± 2.1%
- Percent release of β-glucuronidase (human neutrophils [3]; [6]): 8.5 ± 1.7%
- Percent release of Vit. B12-binding protein (human neutrophils [3]; NAF 100 μl, without CB): 13.9 ± 2.1%
- Percent release of lactate dehydrogenase (human neutrophils [3]; NAF 100 μl, without CB): 6.8 ± 2.2%
- Percent release of β-glucuronidase (human neutrophils [3]; NAF 100 μl, without CB): 3.0 ± 1.3%
- Cytochrome c reduction, Maximum rate (human neutrophils [4]; NAF 5 μl): 0.81 nmol/min
- Cytochrome c reduction, Total in 3 min (human neutrophils [4]; NAF 5 μl): 0.89 nmol
- Cytochrome c reduction, Maximum rate (human neutrophils [4]; NAF 10 μl): 1.45 ± 0.63 nmol/min
- Cytochrome c reduction, Total in 3 min (human neutrophils [4]; NAF 10 μl): 1.45 ± 0.50 nmol
- Cytochrome c reduction, Maximum rate (human neutrophils [4]; NAF 20 μl): 2.32 ± 0.56 nmol/min
- Cytochrome c reduction, Total in 3 min (human neutrophils [4]; NAF 20 μl): 2.16 ± 0.39 nmol
- Cytochrome c reduction, Maximum rate (human neutrophils [4]; NAF 30 μl): 2.51 ± 0.50 nmol/min
- Cytochrome c reduction, Total in 3 min (human neutrophils [4]; NAF 30 μl): 2.30 ± 0.55 nmol
- Cytochrome c reduction, Maximum rate (human neutrophils [4]; NAF 50 μl): 3.51 ± 0.69 nmol/min
- Cytochrome c reduction, Total in 3 min (human neutrophils [4]; NAF 50 μl): 3.10 ± 0.55 nmol
- Cytochrome c reduction, Maximum rate (human neutrophils [4]; NAF 100 μl): 3.69 nmol/min
- Cytochrome c reduction, Total in 3 min (human neutrophils [4]; NAF 100 μl): 3.39 nmol
- thymocyte proliferation-inducing activity (IL-1 activity) (thymocyte): no thymocyte proliferation-inducing activity
